Results on five compounds are retold here after patent publication US11191743B2, “Modulators of zinc activated cation channel” (Dignity Health, priority 2016, dated 2021).

“Also recorded” adds a separate entry of the source. Read-outs that look alike come from different tables or passages of the source.

The target in one data set is T1, GABAA (α1β2γ2) receptor (Homo sapiens, UniProt P14867+P18507+P47870).
T1 construct: expressed in transfected cells
Description: Application of NBT to other Cys-loop receptors. Type of data set: cell-based. Particulars: listed as NBT. An excerpt:
(§1) To date the only known agonist and antagonist for ZACN are Zn^2+ (agonist) and d-tubocurarine (antagonist).

The target in another data set is T2, glycine (α1) receptor (Homo sapiens, UniProt P23415).
T2 construct: expressed in transfected cells
T2 sequence (P23415 29-457): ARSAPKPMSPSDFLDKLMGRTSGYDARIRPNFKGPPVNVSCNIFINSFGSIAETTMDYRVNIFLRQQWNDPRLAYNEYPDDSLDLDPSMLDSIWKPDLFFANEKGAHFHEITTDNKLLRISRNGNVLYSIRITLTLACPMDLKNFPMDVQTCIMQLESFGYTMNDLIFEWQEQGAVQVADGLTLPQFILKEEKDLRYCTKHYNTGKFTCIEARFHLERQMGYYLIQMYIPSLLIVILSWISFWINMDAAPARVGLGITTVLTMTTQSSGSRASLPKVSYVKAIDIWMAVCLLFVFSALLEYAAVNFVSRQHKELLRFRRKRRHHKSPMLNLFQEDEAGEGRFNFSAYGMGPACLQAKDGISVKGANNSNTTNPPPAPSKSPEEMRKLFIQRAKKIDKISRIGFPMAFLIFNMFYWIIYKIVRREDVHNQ
Description: Application of NBT to other Cys-loop receptors. Type of data set: cell-based. Conditions: listed as NBT.
Source text: as §1

The target in another data set is T3, GABAA (α6β2δ) receptor (Homo sapiens, UniProt O14764+P47870+Q16445).
T3 construct: expressed in transfected cells
The data set is described as follows: Application of NBT to other Cys-loop receptors. Type of data set: cell-based. Conditions: listed as NBT.
Source text: as §1

In the next data set the target is T4, nACh (α7) receptor (Homo sapiens, UniProt P36544).
T4 construct: expressed in transfected cells
Description: Application of NBT to other Cys-loop receptors. Type of data set: cell-based. Particulars: listed as NBT.
Source text: as §1

The next data set deals with T5, nACh (α4β2) receptor (Homo sapiens, UniProt P17787+P43681).
T5 construct: expressed in transfected cells
The data set is described as follows: Application of NBT to other Cys-loop receptors. Type of data set: cell-based. Conditions: listed as NBT.
Source text: as §1

Another data set addresses T6, GABAC (ρ1) receptor (Homo sapiens, UniProt P24046).
T6 construct: expressed in transfected cells
Description: Application of NBT to other Cys-loop receptors. Conditions: listed as NBT. Type of data set: cell-based.
Source text: as §1

Data set [1] deals with T7, serotonin (5HT3A) receptor (Homo sapiens, UniProt P46098).
T7 construct: expressed in transfected cells
T7 sequence (P46098 24-478): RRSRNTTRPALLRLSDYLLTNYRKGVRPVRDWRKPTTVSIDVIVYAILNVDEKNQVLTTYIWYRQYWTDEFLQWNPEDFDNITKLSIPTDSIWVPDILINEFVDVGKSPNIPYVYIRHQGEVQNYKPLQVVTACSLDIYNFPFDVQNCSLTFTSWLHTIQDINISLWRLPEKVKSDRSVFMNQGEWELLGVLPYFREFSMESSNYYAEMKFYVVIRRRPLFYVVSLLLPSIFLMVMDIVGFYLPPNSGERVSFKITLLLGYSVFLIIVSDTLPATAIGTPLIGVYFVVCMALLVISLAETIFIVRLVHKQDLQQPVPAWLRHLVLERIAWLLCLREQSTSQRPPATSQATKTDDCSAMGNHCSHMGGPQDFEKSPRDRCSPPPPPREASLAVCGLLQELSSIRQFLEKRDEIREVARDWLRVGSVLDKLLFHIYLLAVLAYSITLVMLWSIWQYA
Description: Application of NBT to other Cys-loop receptors. Type of data set: cell-based. Conditions: listed as NBT.
Source text: as §1

The target of data set [2] is T8, ZACN (Homo sapiens, UniProt Q401N2).
T8 sequence (Q401N2 26-412): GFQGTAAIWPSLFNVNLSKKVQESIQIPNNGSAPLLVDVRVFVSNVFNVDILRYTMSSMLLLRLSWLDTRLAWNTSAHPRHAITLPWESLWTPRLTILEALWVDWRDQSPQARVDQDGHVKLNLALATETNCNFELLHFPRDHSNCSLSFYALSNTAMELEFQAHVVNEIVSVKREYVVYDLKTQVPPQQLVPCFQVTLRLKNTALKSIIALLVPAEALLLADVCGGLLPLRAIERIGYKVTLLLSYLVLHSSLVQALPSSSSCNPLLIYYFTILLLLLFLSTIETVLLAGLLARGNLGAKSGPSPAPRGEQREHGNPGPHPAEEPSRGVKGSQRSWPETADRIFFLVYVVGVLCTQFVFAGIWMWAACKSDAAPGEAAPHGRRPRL
The data set is described as follows: Two-electrode voltage-clamp, ZACN expressed in Xenopus laevis oocytes: agonist-induced current. Type of data set: cell-based. Set-up: host or cells: Xenopus laevis oocytes injected with cRNA (pGEMHE vector, T7 transcript). An excerpt: The cDNA encoding wild type, human ZACN was purchased from OpenBiosystems, and cloned into the pGEMHE vector in the T7 orientation. For cRNA synthesis, cDNA templates were PCR amplified using primers that cover the M13 forward and reverse regions and high fidelity Phusion DNA polymerase (New England Biolab, Ipswich, Mass., USA). PCR products were then purified and served as templates for cRNA synthesis. cRNAs were transcribed by T7 RNA polymerase (Promega, Madison, Wis., USA) using standard in vitro transcription protocols. After digestion of the DNA template by RNase-free DNase I, cRNAs were purified and resuspended in diethyl pyrocarbonate (DEPC)-treated water. cRNA integrity was examined on a 1% agarose gel, and cRNA concentration was determined by optical density measurements at 260 nm using an Eppendorf Biophotometer.
Oocytes were harvested from female Xenopus laevis (Xenopus I, Ann Arbor, Mich., USA), using the protocol “Xenopus Care and Use” approved by the Institutional Animal Care and Use Committee of the St. Joseph's Hospital and Medical Center. Stage VI oocytes were selected and incubated at 16° C. before injection. Micropipettes for injection were pulled from borosilicate glass (Drummond Scientific, Broomall, Pa., USA) on a Sutter P87 horizontal puller, and the tips were cut with forceps to ≈40 μm in diameter. cRNAs encoding ZACN was drawn up into the micropipette and injected into oocytes with a Nanoject micro-injection system (Drummond Scientific) in a total volume of ˜60 nl and total cRNA of ˜20 ng for each oocyte.
Two to 5 days after injection, oocytes expressing ZACN were placed in a home-made, small volume chamber and a 16-channel manifold, continuously perfused with oocyte Ringer's solution (OR2), which consisted of (in mM) 92.5 NaCl, 2.5 KCl, 1 CaCl2, 1 MgCl2 and 5 HEPES, pH 7.5. ValveLink 16 computer-controlled perfusion system was used to switch solutions between the OR2 and a test solution. The perfusion chamber was grounded through an agar salt bridge to avoid alterations in junction potential between the Ag/AgCl grounding electrode and solution when solution/drug changes occurred. Oocytes were voltage-clamped at −70 mV to measure agonist-induced currents using an AxoClamp 900A amplifier (Axon Instruments, Foster City, Calif., USA). The current signal was low-pass filtered at 20 Hz with the built-in 4-pole low-pass Bessel filter and digitized at 100 Hz with a Digidata1440a and pClamp 10 software (Molecular Devices).
For each oocyte, concentration-inhibition curves for drug-induced inhibition of zinc-activated current responses or concentration response curves for agonist-induced current of the ZACN were fit to the Hill equation using least squares methods (Prism 6.0, GraphPad Software, Inc., San Diego, Calif., USA) to derive IC50 or EC50 values (the concentration required for inducing a half maximal current), Hill coefficients (the slope factor), and maximum current levels in absolute terms. Current levels in each oocyte were normalized to the maximum current in the absence of the inhibitor, allowing normalized data to be averaged across multiple oocytes and to be fit again to the Hill equation. All data are presented as mean±SEM (standard error).

For the next data set, the system named is iTreg cells. Description: Calcium influx assay in Treg cells. Type of data set: cell-based, human. How it is done: Treg cells were loaded with calcium sensitive fluorescent dye X-Rhod-1 AM (cell permeant) (2 μM) for 60 min at room temperature. After wash, the cells were placed onto a glass-bottom petri dish with coated glass surface to allow cells attached to the glass surface. The fluorescence was detected using a microscope-based detection system with a different filter set (excitation filter ET560/40x, T585LPxr dichroic mirror, and ET630/75m emission filter). The fluorescence signal, first in the absence and then in the presence of a ZACN agonist, was low-pass filtered with a signal filter at 1 Hz and digitized with a Digidata1440 digitizer at 10 Hz.

The subject of data set [3] is iTreg-induced immunosuppression of T cell division. Type of data set: cell-based, human. How it is done: Live Treg cells (CD4+CD25^high) and conventional T cells (Tconv cells) (CD4+CD25−) are obtained by immunomagnetic cell isolation kit from human iTreg. Tconv cells are labeled with CFSE (10 uM for 10 min). After washing, the labeled cells are distributed into multiple wells (1×10^5/well) in a round bottom 96-well plate with various numbers (2-fold serial dilutions from 1×10^5/well) of Treg cells in each well. The mixed cells (Treg and Tconv with different ratios) are co-cultured for 72 h in the presence of anti-CD3/CD28-coated sulfate latex beads. The intensity of CFSE fluorescence that declines upon division of the labeled cells is measured by flow cytometry.
As disclosed throughout the disclosure, and specifically in FIG. 7, Zinc and/or d-tubocurarine has an influence on iTreg suppression function. CFSE Immunosuppression Assay uses a cell permeable reactive fluorescent dye, CFSE. After entering cells, CFSE interacts with intracellular proteins, and permanently stain the cell. The fluorescence intensity will decrease along with the T cell division.

Data set [4] has as its target T8, ZACN. On the set-up: host or cells: HEK cells (exogenous expression). Particulars: cited from earlier work.

T3 sequence (Q16445 20-453): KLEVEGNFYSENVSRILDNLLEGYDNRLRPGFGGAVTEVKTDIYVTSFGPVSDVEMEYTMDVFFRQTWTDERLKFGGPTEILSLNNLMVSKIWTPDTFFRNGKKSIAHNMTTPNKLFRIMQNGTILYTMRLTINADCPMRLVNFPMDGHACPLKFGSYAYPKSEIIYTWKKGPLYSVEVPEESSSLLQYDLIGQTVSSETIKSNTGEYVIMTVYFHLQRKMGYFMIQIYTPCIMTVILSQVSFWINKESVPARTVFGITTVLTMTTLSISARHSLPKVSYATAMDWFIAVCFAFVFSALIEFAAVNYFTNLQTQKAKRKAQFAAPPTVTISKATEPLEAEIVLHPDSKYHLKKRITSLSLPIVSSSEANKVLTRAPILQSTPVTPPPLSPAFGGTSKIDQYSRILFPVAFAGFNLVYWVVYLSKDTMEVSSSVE
T3 sequence (P47870 25-512 limits assumed): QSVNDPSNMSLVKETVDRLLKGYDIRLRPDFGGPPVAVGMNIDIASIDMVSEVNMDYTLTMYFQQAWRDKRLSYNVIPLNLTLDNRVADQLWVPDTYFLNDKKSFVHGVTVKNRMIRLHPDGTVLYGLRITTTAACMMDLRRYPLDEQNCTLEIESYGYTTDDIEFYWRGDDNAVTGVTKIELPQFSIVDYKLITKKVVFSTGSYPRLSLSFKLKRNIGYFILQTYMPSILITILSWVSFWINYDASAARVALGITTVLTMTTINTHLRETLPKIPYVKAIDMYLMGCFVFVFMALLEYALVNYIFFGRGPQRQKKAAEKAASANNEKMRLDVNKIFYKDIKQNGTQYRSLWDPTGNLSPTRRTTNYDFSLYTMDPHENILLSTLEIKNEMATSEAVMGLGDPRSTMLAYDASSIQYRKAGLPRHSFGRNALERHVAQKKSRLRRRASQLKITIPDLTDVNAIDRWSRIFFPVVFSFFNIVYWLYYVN
T3 sequence (O14764 17-452 limits assumed): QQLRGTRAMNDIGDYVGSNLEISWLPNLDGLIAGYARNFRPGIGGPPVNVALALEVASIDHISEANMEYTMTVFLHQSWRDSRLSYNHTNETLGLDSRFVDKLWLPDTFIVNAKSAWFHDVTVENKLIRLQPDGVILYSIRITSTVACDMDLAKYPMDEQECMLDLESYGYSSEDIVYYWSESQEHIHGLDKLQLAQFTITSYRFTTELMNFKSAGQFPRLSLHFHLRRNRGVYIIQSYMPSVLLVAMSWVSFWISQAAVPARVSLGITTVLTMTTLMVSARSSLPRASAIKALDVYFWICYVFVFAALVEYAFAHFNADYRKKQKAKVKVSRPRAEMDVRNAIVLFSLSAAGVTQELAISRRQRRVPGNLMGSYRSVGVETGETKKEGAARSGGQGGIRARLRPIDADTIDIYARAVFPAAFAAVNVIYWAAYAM
T6 sequence (P24046 22-479): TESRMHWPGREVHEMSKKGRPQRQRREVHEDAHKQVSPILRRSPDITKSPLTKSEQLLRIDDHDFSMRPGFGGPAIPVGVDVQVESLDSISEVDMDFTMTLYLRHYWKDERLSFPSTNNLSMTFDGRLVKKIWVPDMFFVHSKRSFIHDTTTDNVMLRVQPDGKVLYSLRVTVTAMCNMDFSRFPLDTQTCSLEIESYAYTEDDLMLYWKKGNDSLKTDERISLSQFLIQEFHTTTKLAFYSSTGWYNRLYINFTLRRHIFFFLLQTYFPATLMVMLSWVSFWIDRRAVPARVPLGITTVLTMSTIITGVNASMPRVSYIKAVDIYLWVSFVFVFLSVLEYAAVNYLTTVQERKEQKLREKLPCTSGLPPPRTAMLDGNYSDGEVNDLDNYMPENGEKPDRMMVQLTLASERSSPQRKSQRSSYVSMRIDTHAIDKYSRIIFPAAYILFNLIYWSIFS
T1 sequence (P47870 25-512): as the sequence (P47870 25-512 limits assumed) above
T1 sequence (P18507 40-475): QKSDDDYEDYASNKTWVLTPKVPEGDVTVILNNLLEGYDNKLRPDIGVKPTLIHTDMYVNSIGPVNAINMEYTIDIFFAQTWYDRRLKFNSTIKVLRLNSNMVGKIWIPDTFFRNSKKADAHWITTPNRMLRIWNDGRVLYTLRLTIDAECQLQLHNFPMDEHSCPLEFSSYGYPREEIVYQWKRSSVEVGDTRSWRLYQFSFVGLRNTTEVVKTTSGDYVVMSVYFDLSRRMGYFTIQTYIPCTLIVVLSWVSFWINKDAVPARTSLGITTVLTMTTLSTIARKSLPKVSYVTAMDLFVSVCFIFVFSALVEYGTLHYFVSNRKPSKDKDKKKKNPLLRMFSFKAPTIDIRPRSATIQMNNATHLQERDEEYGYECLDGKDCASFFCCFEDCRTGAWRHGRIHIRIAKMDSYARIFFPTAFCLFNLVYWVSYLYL
T1 sequence (P14867 28-456): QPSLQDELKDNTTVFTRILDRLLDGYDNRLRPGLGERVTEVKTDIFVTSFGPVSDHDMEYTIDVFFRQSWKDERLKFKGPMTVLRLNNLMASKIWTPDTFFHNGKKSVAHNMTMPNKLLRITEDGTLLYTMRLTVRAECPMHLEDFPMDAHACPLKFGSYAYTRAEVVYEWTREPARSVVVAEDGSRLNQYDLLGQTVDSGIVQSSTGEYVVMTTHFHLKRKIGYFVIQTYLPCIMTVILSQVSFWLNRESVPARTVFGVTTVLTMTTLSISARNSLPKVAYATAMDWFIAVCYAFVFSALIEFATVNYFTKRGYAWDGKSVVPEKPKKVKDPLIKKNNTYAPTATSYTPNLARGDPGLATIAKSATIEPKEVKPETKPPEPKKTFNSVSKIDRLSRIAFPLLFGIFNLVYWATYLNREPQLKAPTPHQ
T5 sequence (P43681 29-627): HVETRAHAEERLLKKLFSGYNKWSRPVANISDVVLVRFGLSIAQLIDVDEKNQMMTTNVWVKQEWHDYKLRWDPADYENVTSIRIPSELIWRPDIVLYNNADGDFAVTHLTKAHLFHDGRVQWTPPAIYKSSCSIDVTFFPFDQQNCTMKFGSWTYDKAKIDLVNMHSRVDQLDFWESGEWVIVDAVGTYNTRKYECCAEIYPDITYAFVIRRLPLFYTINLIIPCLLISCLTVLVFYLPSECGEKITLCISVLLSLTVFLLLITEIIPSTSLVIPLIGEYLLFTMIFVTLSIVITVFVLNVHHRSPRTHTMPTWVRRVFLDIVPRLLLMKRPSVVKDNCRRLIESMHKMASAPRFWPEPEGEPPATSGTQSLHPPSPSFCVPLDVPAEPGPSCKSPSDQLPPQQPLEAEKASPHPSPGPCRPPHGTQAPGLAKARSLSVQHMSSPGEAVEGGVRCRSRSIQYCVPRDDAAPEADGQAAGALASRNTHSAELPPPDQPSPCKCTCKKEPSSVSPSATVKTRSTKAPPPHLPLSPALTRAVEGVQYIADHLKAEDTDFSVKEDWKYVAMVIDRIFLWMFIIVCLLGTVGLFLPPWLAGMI
T5 sequence (P17787 26-502): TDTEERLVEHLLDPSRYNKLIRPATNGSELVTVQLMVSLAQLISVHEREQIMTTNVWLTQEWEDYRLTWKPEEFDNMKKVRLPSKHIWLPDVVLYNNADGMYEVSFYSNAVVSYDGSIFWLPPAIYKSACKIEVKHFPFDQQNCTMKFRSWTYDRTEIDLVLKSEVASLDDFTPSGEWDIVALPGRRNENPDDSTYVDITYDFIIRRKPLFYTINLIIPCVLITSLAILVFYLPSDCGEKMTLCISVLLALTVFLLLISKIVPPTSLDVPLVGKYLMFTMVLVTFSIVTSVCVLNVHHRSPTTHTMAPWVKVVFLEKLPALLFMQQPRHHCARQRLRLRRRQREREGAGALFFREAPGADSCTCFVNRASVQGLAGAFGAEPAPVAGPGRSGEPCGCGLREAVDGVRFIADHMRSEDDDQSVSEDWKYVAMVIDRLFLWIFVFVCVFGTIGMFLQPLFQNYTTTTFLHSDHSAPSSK
T4 sequence (P36544 23-502): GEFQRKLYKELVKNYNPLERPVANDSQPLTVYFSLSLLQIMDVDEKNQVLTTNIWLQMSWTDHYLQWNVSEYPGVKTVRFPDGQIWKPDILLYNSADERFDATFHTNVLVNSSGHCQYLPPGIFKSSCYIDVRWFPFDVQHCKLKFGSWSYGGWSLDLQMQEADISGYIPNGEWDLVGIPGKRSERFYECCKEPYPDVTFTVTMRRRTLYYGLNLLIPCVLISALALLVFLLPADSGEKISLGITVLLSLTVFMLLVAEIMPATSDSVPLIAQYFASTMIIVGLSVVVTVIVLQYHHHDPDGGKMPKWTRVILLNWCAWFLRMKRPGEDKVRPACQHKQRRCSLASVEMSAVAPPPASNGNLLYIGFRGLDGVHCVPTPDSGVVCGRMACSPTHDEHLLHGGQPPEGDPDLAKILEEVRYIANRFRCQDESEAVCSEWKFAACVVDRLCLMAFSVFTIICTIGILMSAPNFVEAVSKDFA

With `COc1cc(-c2ccc(-n3nc(-c4ccccc4)n[n+]3-c3ccc([N+](=O)[O-])cc3)c(OC)c2)ccc1-n1nc(-c2ccccc2)n[n+]1-c1ccc([N+](=O)[O-])cc1` [Nitro Blue Tetrazolium], the “response to NBT application” value at GABAA (α1β2γ2) receptor, on glycine (α1) receptor, at GABAA (α6β2δ) receptor, at nACh (α7) receptor, at nACh (α4β2) receptor and on GABAC (ρ1) receptor was “elicited no response; also recorded: no agonist or antagonist effect” in each case. Besides, the “response to NBT application” value in data set [1] was “elicited no response; also recorded: no agonist or antagonist effect”. Besides, at ZACN [2], the “ZACN recovery from activation, compared with ZnCl2” value is “much slower”. For the same compound, the “agonist activity on human ZACN (words)” value at ZACN [2] was “selective agonist”.

As to `[Cl-].[Cl-].[Zn+2]` [ZnCl2, Zinc chloride], the “intracellular calcium in iTreg cells” value with iTreg cells is given as “intracellular calcium increase”. Further, the “effect on T cell viability” value in data set [3] (high concentration, 1 mM) is listed as “killed T cells”. Besides, the EC50 at ZACN [4] (HEK cells, read-out: ZnCl2 EC50 for ZACN expressed in HEK cells) is 540 µM; at ZACN [2] (ZACN expressed in X. laevis oocytes, read-out: EC50 in activating ZACN) it was 1640 ± 56 µM; at ZACN [2] (ZACN expressed in X. laevis oocytes, read-out: EC50 on ZACN), 1660 µM; at ZACN [2] (read-out: approximate EC50 Zn2+ concentration for this receptor), approximately 500 µM. For the same compound, the “activation of ZACN in HEK cells” value at ZACN [4] was “activated this receptor dose-dependently”. Moreover, the “ZnCl2 EC50 in Xenopus oocytes relative to HEK cells (fold greater)” value on ZACN [2] is “approximately 3 fold”. Besides, the “approximate EC80 Zn2+ concentration for this receptor” value on ZACN [2] is approximately 2000 µM.

On to `COc1cc2c3cc1Oc1cc(ccc1O)C[C@@H]1c4c(cc(OC)c(O)c4Oc4ccc(cc4)C[C@@H]3N(C)CC2)CC[N+]1(C)C` [d-tubocurarine], for which, in data set [3], the “influence on iTreg suppression function” value is given as “inhibited the iTreg-induced immunosuppression of T cell division”. At ZACN [4], the “effect on spontaneous activity of ZACN in HEK cells” value is on record as “blocked”.

Turning to heparin, the “agonist activity on human ZACN (words)” value at ZACN [2] is given as “agonist”.

On to pentosan polysulfate, for which the “agonist activity on human ZACN (words)” value is reported as “agonist of the human ZACN with high efficacy” at ZACN [2] and “agonist” on ZACN [2] (listed as pentosane polysulfate).
